The source of these data is patent US20200023072A1, “ANTIBODY-DRUG CONJUGATES WITH IMMUNE-MEDIATED THERAPY AGENTS” (MEDIMMUNE LIMITED, priority 2016, published 2020).

This experiment concerns CT26 mouse colon cancer cells. As to the kind of experiment: In vivo vaccination/challenge mouse model with payload-treated CT26 cells. Conditions: CT26 cells treated 24 hours with tubulysin (1 uM) or PBD (10 nM), implanted in left flank of BALB/c mice; challenge with untreated CT26 cells in opposite flank 1 week later; assessed on day 65. The method, then:
CT26 cells were treated with either […] AZD9185 (tubulysin) or […] SG3199 (PBD) for 24 hours so that the cells were committed to cell death (as assessed by lack of growth in re-plating experiments) but still >95% viable. Five-hundred thousand of these treated cells were inoculated into the left flank of BALB/c mice to test for their ability to vaccinate for subsequent right flank challenge. Controls included cells treated with 75 Gy radiation or taken through 3 freeze-thaw cycles (necrotic). Challenge on the right flank utilized 3×10^6 untreated CT26 cells 7 days later.
In order to test this, tubulysin and PBD were used in a vaccination/challenge mouse model. CT26 mouse colon cancer cells were treated with either tubulysin (1 uM) or PBD (10 nM) for a period of 24 hours (FIG. 1A). At this point in time, the cells were still viable but committed subsequent cell death.
These dying but not yet dead cells were implanted subcutaneously into the left flank of BALB/c mice to test if they could vaccinate against subsequent challenge with a tumor forming dose of untreated CT26 cells in the opposite flank 1 week later. Irradiated cells were included as a positive control and necrotic cells which were taken through a freeze thaw cycle were included as a negative control.

Consider `CC[C@H](C)[C@H](NC(=O)[C@H]1CCCCN1C)C(=O)N(COC(=O)CC(C)C)[C@H](C[C@@H](OC(C)=O)c1nc(C(=O)N[C@@H](Cc2ccc(C)cc2)C[C@H](C)C(=O)O)cs1)C(C)C` [Tubulysin], for which the “mice protected from tumor formation” value turned out to be 40%.

In the case of `COc1cc2c(cc1OCCCCCOc1cc3c(cc1OC)C(=O)N1C=C(C)C[C@H]1C=N3)N=C[C@@H]1CC(C)=CN1C2=O` [PBD], the “mice protected from tumor formation” value was 70%.
